Consider ten molecules from US20160122386A1, “V1A RECEPTOR AGONISTS” (FERRING B.V., priority 2014, published 2016).

The target in this assay is T1, human V1aR (Homo sapiens, UniProt P37288).
T1 construct: expressed in transfected cells
Nature of the assay: Agonist activity at vasopressin V1a receptors, cell-based FLIPR calcium assay. As to conditions: for Emax: read-out: Efficacy Avg. (%). The method, then:
Efficacy (% MPE) is also determined as the percentage of maximal possible effect. This agonist assay utilizes cells from a stable cell line (HEK-flpin) expressing the vasopressin V1a receptor. Intracellular calcium increase in response to agonist is measured through real-time fluorescence of an intracellular calcium-sensitive dye. Cells are exposed to varying concentrations of test agonist compounds whereupon release of intracellular calcium is measured to determine the agonist potency and efficacy.
The cell line stably expresses the lacZ-Zeocin™ fusion gene and is designed for use with the Flp-In™ expression vector containing the gene of interest and the Flp recombinase expression plasmid, pOG44. The cell line contains a single integrated Flp Recombination Target (FRT) site from pFRT/lacZeo or pFRT/lacZeo2. To generate the HEK-flpin cell line stably expressing the human V1aR, the cells were co-transfected with the Flp-In™ expression vector containing the gene of interest (pcDNA5/FRT-hV1aR) and the Flp recombinase expression plasmid pOG44. Flp recombinase mediates insertion of the Flp-In™ expression vector into the genome at the integrated FRT site through site-specific DNA recombination. Stable cell lines expressing the hV1aR from the Flp-In™ expression vector can be generated by selection using hygromycin B. See Life Technologies/Invitrogen manual, Growth and Maintenance of Flp-In™ Cell Lines, Version E, published Feb.
Efficacy of this compound was set to be 100%. A stock solution of 5 mM was made up in DMSO and stored at −20° C.
HEK-flpin-hV1aR, cmcqV1aR, dV1aR and pV1aR cells were maintained in DMEM containing 10% (v/v) FBS-HI, 4 mM GlutaMAX™-I, 25 μg/mL Hygromycin B at 37° C. under 5% CO2 in a humidified atmosphere. Subculture was achieved by splitting semi-confluent cultures 1:3 to 1:6.
All compounds were made up in 100% DMSO at 10 mM stock concentrations and stored at −20° C. The compounds were allowed to thaw just before the assay. […] Typical dilution procedure of 10× final assay concentration involved a 1:100 top dilution (e.g., 2 μl Stock into 198 μl dilution medium) followed by half-log serial dilutions (e.g., 25.3 μl into 54.7 μl dilution medium supplemented with 1% DMSO (v/v)). (Dilution media consisted of phenol-red free DMEM containing 10% FBS-HI, 4 mM GlutaMAX™-I). […] The final DMSO concentration in the assay was 0.1%.
Loading Buffer was prepared by dissolving 1 vial of Calcium 4 Assay reagent in 100 mL of 1× HBSS-20 mM Hepes buffer.
The cells were loaded with Loading Buffer as follows. Cell plates were removed from the incubator and 20 μl of Loading Buffer containing probenecid (2.5 mM) was added to each well. The cells were incubated for 1 hr at 37° C. under 5% CO2 in a humidified atmosphere. The calcium image was obtained as follows.
The cell plates were transferred to FLIPR Tetra, along with a 384 well V-bottom plate pre-loaded with half-log concentrations of test compounds at 10× final test concentrations. The remaining steps of the assay were carried forward by FLIPR Tetra. A baseline reading was taken at 1-second (s) intervals for 5s followed by the addition of 5 μl of 10× compounds (test, reference, or Blank). The agonist-induced fluorescence signal was then measured for 180 s with initial 120 readings at 1-second intervals followed by 20 readings at 3-second intervals. Overall, each well in the FLIPR assay was composed of the following components in a total volume of 50 μl: 20 μl cells; 20 μl Calcium 4 Loading Buffer; […] 10× test or reference compound.

Starred links: 1 amine or outer side, 2 acyl side, 3 side chain; linkers in the order of their positions; H or OH if unused. Positions of bridges follow the written chain, without caps; N, C: chain ends. Non-standard residues stand in square brackets, D forms with d. Residues, ends and D or L forms follow the SMILES beside them. Chains are numbered I, II in the order given. *: point of attachment. d(isoGln) = NC(=O)[C@@H](CCC(=O)[*:2])N[*:1]; isoGln = NC(=O)[C@H](CCC(=O)[*:2])N[*:1]; d(εLys) = N[C@H](CCCCN[*:1])C(=O)[*:2]; X1 = N[C@@H](CCC(=O)[*:2])C(=O)[*:1]; εLys = N[C@@H](CCCCN[*:1])C(=O)[*:2]; Aad = N[C@@H](CCCC(=O)O)C(=O)O; Cit = NC(=O)NCCC[C@H](N)C(=O)O; Dab = NCC[C@H](N)C(=O)O; PhAc = O=C(Cc1ccccc1)* Some results are limits rather than exact numbers.

T1 sequence (P37288 whole entry): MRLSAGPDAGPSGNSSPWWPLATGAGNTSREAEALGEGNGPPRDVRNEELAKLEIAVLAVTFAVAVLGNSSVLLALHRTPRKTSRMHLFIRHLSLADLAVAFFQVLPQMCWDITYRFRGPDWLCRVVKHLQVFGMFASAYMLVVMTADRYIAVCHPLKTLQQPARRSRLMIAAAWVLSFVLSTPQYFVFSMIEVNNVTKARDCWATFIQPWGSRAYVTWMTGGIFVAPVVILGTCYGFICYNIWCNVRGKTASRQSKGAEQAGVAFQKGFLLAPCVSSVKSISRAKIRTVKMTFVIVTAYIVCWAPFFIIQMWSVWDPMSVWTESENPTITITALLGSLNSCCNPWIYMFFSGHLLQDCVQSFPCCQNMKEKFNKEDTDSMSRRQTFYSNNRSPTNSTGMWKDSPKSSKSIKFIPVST

`CC[C@H](C)[C@@H]1NC(=O)[C@H](Cc2ccccc2)NC(=O)[C@@H](N)CSSC[C@@H](C(=O)N2CCC[C@H]2C(=O)N[C@@H](CCNC(=O)[C@H](N)CCCCNC(=O)CC[C@H](NC(=O)[C@H](CCCNC(=N)N)NC(=O)[C@@H]2CCCN2C(=O)[C@H](CCN)NC(=O)[C@H](CC(N)=O)NC(=O)[C@H](CCC(N)=O)NC(=O)[C@H](Cc2ccccc2)NC(=O)[C@@H](Cc2ccc(OC)cc2)NC(=O)Cc2ccccc2)C(N)=O)C(=O)NCC(N)=O)NC(=O)[C@H](CC(N)=O)NC(=O)[C@H](CC(N)=O)NC1=O` [Compound 59] (I: H-CFINNCP[Dab]G-NH2 / II: PhAc-[dY](Me)FQN[Dab]PR[isoGln][d(εLys)]; disulfide I:1-I:6; amide I:8-II:C): the Emax was 26%.

In the case of `CC[C@H](C)[C@@H]1NC(=O)[C@H](Cc2ccccc2)NC(=O)[C@@H](N)CSSC[C@@H](C(=O)N2CCC[C@H]2C(=O)N[C@@H](CCNC(=O)[C@H](N)CCCCNC(=O)CC[C@@H](NC(=O)[C@H](CCCNC(=N)N)NC(=O)[C@@H]2CCCN2C(=O)[C@H](CCCNC(N)=O)NC(=O)[C@H](CC(N)=O)NC(=O)[C@H](CCC(N)=O)NC(=O)[C@H](Cc2ccccc2)NC(=O)[C@@H](Cc2ccc(OC)cc2)NC(=O)Cc2ccccc2)C(N)=O)C(=O)NCC(N)=O)NC(=O)[C@H](CC(N)=O)NC(=O)[C@H](CCC(N)=O)NC1=O` [Compound 55] (I: H-CFIQNCP[Dab]G-NH2 / II: PhAc-[dY](Me)FQN[Cit]PR[d(isoGln)][d(εLys)]; disulfide I:1-I:6; amide I:8-II:C), the Emax came to 56%.

As for `CC[C@H](C)[C@@H]1NC(=O)[C@H](Cc2ccccc2)NC(=O)[C@@H](N)CSSC[C@@H](C(=O)N2CCC[C@H]2C(=O)N[C@@H](CCNC(=O)[C@H](N)CCCCNC(=O)CC[C@H](NC(=O)[C@H](CCCNC(=N)N)NC(=O)[C@@H]2CCCN2C(=O)[C@H](C)NC(=O)[C@H](CC(N)=O)NC(=O)[C@H](CCC(N)=O)NC(=O)[C@H](Cc2ccccc2)NC(=O)[C@@H](Cc2ccc(OC)cc2)NC(=O)Cc2ccccc2)C(N)=O)C(=O)NCC(N)=O)NC(=O)[C@H](CC(N)=O)NC(=O)[C@H](CC(N)=O)NC1=O` [Compound 60] (I: H-CFINNCP[Dab]G-NH2 / II: PhAc-[dY](Me)FQNAPR[isoGln][d(εLys)]; disulfide I:1-I:6; amide I:8-II:C), the EC50 was found to be 2.3 nM and the Emax was determined as 42%.

With `CC[C@H](C)[C@@H]1NC(=O)[C@H](Cc2ccccc2)NC(=O)[C@@H](N)CSSC[C@@H](C(=O)N2CCC[C@H]2C(=O)N[C@@H](CCNC(=O)[C@H](N)CCCCNC(=O)CC[C@@H](NC(=O)[C@H](CCCNC(=N)N)NC(=O)[C@@H]2CCCN2C(=O)[C@H](C)NC(=O)[C@H](CC(N)=O)NC(=O)[C@H](CCC(N)=O)NC(=O)[C@H](Cc2ccccc2)NC(=O)[C@@H](Cc2ccc(OC)cc2)NC(=O)Cc2ccccc2)C(N)=O)C(=O)NCC(N)=O)NC(=O)[C@H](CC(N)=O)NC(=O)[C@H](CCC(N)=O)NC1=O` [Compound 56] (I: H-CFIQNCP[Dab]G-NH2 / II: PhAc-[dY](Me)FQNAPR[d(isoGln)][d(εLys)]; disulfide I:1-I:6; amide I:8-II:C), the EC50 worked out at 1.8 nM and the Emax turned out to be 60%.

As for `CC[C@H](C)[C@@H]1NC(=O)[C@H](Cc2ccccc2)NC(=O)[C@@H](N)CSSC[C@@H](C(=O)N2CCC[C@H]2C(=O)N[C@@H](CCCNCCCCNC(=O)CC[C@H](NC(=O)[C@H](CCCNC(=N)N)NC(=O)[C@@H]2CCCN2C(=O)[C@H](CCCNC(=N)N)NC(=O)[C@H](CC(N)=O)NC(=O)[C@H](CCC(N)=O)NC(=O)[C@H](Cc2ccccc2)NC(=O)[C@@H](Cc2ccc(OC)cc2)NC(=O)Cc2ccccc2)C(N)=O)C(=O)NCC(N)=O)NC(=O)[C@H](CC(N)=O)NC(=O)[C@H](CCC(N)=O)NC1=O` [Compound 10], the EC50 was above 10000 nM and the Emax worked out at 26%.

On to `CC[C@H](C)[C@@H]1NC(=O)[C@H](Cc2ccccc2)NC(=O)[C@@H](O)CSSC[C@@H](C(=O)N2CCC[C@H]2C(=O)N[C@@H](CCCNCCCCCNC(=O)CC[C@H](NC(=O)[C@H](CCCNC(=N)N)NC(=O)[C@@H]2CCCN2C(=O)[C@H](C)NC(=O)[C@H](CC(N)=O)NC(=O)[C@H](CCC(N)=O)NC(=O)[C@H](Cc2ccccc2)NC(=O)[C@@H](Cc2ccc(OC)cc2)NC(=O)Cc2ccccc2)C(N)=O)C(=O)NCC(N)=O)NC(=O)[C@H](CC(N)=O)NC(=O)[C@H](CCC(N)=O)NC1=O` [Compound 23], for which the EC50 worked out at 1.7 nM and the Emax stood at 51%.

In the case of `CC[C@H](C)[C@@H]1NC(=O)[C@H](Cc2ccccc2)NC(=O)[C@@H](N)CSSC[C@@H](C(=O)N2CCC[C@H]2C(=O)N[C@@H](CCNC(=O)[C@@H](N)CCCCNC(=O)CC[C@H](NC(=O)[C@H](CCCNC(=N)N)NC(=O)[C@@H]2CCCN2C(=O)[C@H](C)NC(=O)[C@H](CC(N)=O)NC(=O)[C@H](CCC(N)=O)NC(=O)[C@H](Cc2ccccc2)NC(=O)[C@@H](Cc2ccc(OC)cc2)NC(=O)Cc2ccccc2)C(N)=O)C(=O)NCC(N)=O)NC(=O)[C@H](CC(N)=O)NC(=O)[C@H](CCC(N)=O)NC1=O` [Compound 18] (I: H-CFIQNCP[Dab]G-NH2 / II: PhAc-[dY](Me)FQNAPR[isoGln][εLys]; disulfide I:1-I:6; amide I:8-II:C), the EC50 stood at 3.9 nM and the Emax came to 49%.

On to `CC[C@H](C)[C@@H]1NC(=O)[C@H](Cc2ccccc2)NC(=O)[C@@H](N)CSSC[C@@H](C(=O)N2CCC[C@H]2C(=O)N[C@@H](CCNC(=O)[C@@H](N)CCC(=O)NCCCC[C@H](NC(=O)[C@H](CCCNC(=N)N)NC(=O)[C@@H]2CCCN2C(=O)[C@H](C)NC(=O)[C@H](CC(N)=O)NC(=O)[C@H](CCC(N)=O)NC(=O)[C@H](Cc2ccccc2)NC(=O)[C@@H](Cc2ccc(OC)cc2)NC(=O)Cc2ccccc2)C(N)=O)C(=O)NCC(N)=O)NC(=O)[C@H](CC(N)=O)NC(=O)[C@H](CCCC(N)=O)NC1=O` [Compound 64] (I: H-CFI[Aad](NH2)NCP[Dab]G-NH2 / II: PhAc-[dY](Me)FQNAPRK-NH2; disulfide I:1-I:6; linker I:8-II:8 via X1), for which the EC50 worked out at 2.9 nM and the Emax stood at 42%.

On to `CC[C@H](C)[C@@H]1NC(=O)[C@H](Cc2ccccc2)NC(=O)[C@@H](N)CSSC[C@@H](C(=O)N2CCC[C@H]2C(=O)N[C@@H](CCNC(=O)[C@@H](N)CCCCNC(=O)[C@H](CCCCN)NC(=O)CC[C@H](NC(=O)[C@H](CCCNC(=N)N)NC(=O)[C@@H]2CCCN2C(=O)[C@H](C)NC(=O)[C@H](CC(N)=O)NC(=O)[C@H](CCC(N)=O)NC(=O)[C@H](Cc2ccccc2)NC(=O)[C@@H](Cc2ccc(OC)cc2)NC(=O)Cc2ccccc2)C(N)=O)C(=O)NCC(N)=O)NC(=O)[C@H](CC(N)=O)NC(=O)[C@H](CCC(N)=O)NC1=O` [Compound 41] (I: H-CFIQNCP[Dab]G-NH2 / II: PhAc-[dY](Me)FQNAPR[isoGln]K[εLys]; disulfide I:1-I:6; amide I:8-II:C), for which the EC50 is 1.2 nM and the Emax is 37%.

As to `CC[C@H](C)[C@@H]1NC(=O)[C@H](Cc2ccccc2)NC(=O)[C@@H](N)CSSC[C@@H](C(=O)N2CCC[C@H]2C(=O)N[C@@H](CCCNCCCCCNC(=O)CC[C@H](NC(=O)[C@H](CCCNC(=N)N)NC(=O)[C@@H]2CCCN2C(=O)[C@H](CCCNC(N)=O)NC(=O)[C@H](CC(N)=O)NC(=O)[C@H](CCC(N)=O)NC(=O)[C@H](Cc2ccccc2)NC(=O)[C@@H](Cc2ccc(OC)cc2)NC(=O)Cc2ccccc2)C(N)=O)C(=O)NCC(N)=O)NC(=O)[C@H](CC(N)=O)NC(=O)[C@H](CCC(N)=O)NC1=O` [Compound 15], the 50% effective concentration (EC50) was 2.3 nM and the Emax was 44%.
